Measurements as given in PubChem BioAssay (NCI).
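Growth conditions: 96-well plates. Treatment: test compound, 48 hours, 5 concentrations. Analysis: linear interpolation between bracketing concentrations; unreached endpoints set to highest concentration. Abbreviation: GI50, concentration required for 50% inhibition of growth. TGI is the concentration that stops growth completely.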

How the values were obtained:
Assay in all cases: NCI tumour cell line growth inhibition, 48 h
DLD-1 colon = tested on: DLD-1 colon
DMS 114 small cell lung = tested on: DMS 114 small cell lung
DMS 273 small cell lung = tested on: DMS 273 small cell lung
HOP-18 NSCLC = tested on: HOP-18 NSCLC
M19-MEL melanoma = tested on: M19-MEL melanoma
P388 leukemia = tested on: P388 leukemia
P388/ADR leukemia = tested on: P388/ADR leukemia
SN12K1 renal = tested on: SN12K1 renal
XF 498 CNS = tested on: XF 498 CNS
LXFL 529 NSCLC = tested on: LXFL 529 NSCLC
RXF-631 renal = tested on: RXF-631 renal
SNB-78 CNS = tested on: SNB-78 CNS

CNC(=O)OCc1c(CO)nc(SC)n1C
TGI (DLD-1 colon): > 100 µM | TGI (DMS 114 small cell lung): > 100 µM | TGI (DMS 273 small cell lung): > 100 µM | TGI (HOP-18 NSCLC): > 100 µM | TGI (M19-MEL melanoma): > 100 µM | TGI (P388 leukemia): > 100 µM | TGI (P388/ADR leukemia): > 100 µM | TGI (SN12K1 renal): > 100 µM | TGI (XF 498 CNS): > 100 µM

[N-]=[N+]=CC(=O)c1ccccc1C#CCCc1ccccc1
TGI (DLD-1 colon): > 100 µM | TGI (DMS 114 small cell lung): 23.6 µM | TGI (DMS 273 small cell lung): 73.7 µM | TGI (HOP-18 NSCLC): > 100 µM | TGI (XF 498 CNS): 41.3 µM

Nc1ccccc1S(=O)(=O)c1ccccc1
TGI (DLD-1 colon): > 100 µM | TGI (DMS 114 small cell lung): > 100 µM | TGI (DMS 273 small cell lung): > 100 µM | TGI (HOP-18 NSCLC): > 100 µM | TGI (LXFL 529 NSCLC): > 100 µM | TGI (M19-MEL melanoma): > 100 µM | TGI (RXF-631 renal): > 100 µM

COc1cc2c(ccc3c4cc(OC)c(OC)cc4c[n+](C)c23)cc1O
TGI (DLD-1 colon): > 75 µM | TGI (DMS 114 small cell lung): 74.7 µM | TGI (DMS 273 small cell lung): > 75 µM | TGI (HOP-18 NSCLC): > 75 µM | TGI (M19-MEL melanoma): > 75 µM | TGI (P388 leukemia): 5.21 µM | TGI (P388/ADR leukemia): > 75 µM | TGI (SN12K1 renal): 14 µM | TGI (SNB-78 CNS): > 75 µM | TGI (XF 498 CNS): 19.2 µM

CN(C)CC(CC1=C(CC(CN(C)C)N(C)C)CCC1)N(C)C (stereo not drawn)
TGI (DLD-1 colon): > 100 µM | TGI (DMS 114 small cell lung): > 100 µM | TGI (DMS 273 small cell lung): > 100 µM | TGI (HOP-18 NSCLC): > 100 µM | TGI (M19-MEL melanoma): > 100 µM | TGI (P388 leukemia): > 100 µM | TGI (P388/ADR leukemia): > 100 µM | TGI (SN12K1 renal): > 100 µM | TGI (XF 498 CNS): > 100 µM

O=c1cccccc1[O-].O=c1cccccc1[O-].[O]=[U+2]=[O]
GI50 (DMS 273 small cell lung): 22.6 µM | TGI (DMS 273 small cell lung): 58.3 µM | GI50 (HOP-18 NSCLC): 41 µM | TGI (HOP-18 NSCLC): 97 µM | GI50 (LXFL 529 NSCLC): 28.6 µM | TGI (LXFL 529 NSCLC): 82.6 µM | GI50 (SNB-78 CNS): 28.7 µM | TGI (SNB-78 CNS): 67.6 µM | GI50 (XF 498 CNS): 25.7 µM | TGI (XF 498 CNS): 47.3 µM

O=C(OCN1C(=O)C2C3C=CC(C2C1=O)C1C2C(=O)N(COC(=O)C4CCCN4)C(=O)C2C31)C1CCCN1 (stereo not drawn)
TGI (DLD-1 colon): > 69.7 µM | TGI (DMS 114 small cell lung): > 60.6 µM | TGI (DMS 273 small cell lung): > 56.4 µM | TGI (HOP-18 NSCLC): > 100 µM | TGI (LXFL 529 NSCLC): > 100 µM | TGI (M19-MEL melanoma): > 100 µM | TGI (RXF-631 renal): > 100 µM | TGI (SNB-78 CNS): > 100 µM | TGI (XF 498 CNS): > 100 µM

CCCCCCCCC/C=C/C=C/C(=O)NCC(=O)NC1C(O)C(O)C(Nc2ncnc3nc[nH]c23)OC1C(O)CO (stereo not drawn)
GI50 (DLD-1 colon): 0.896 µM | TGI (DMS 114 small cell lung): > 100 µM | GI50 (LXFL 529 NSCLC): 0.0467 µM | TGI (M19-MEL melanoma): 0.0253 µM
